This is an account of results in patent publication US6156765A, “Method of treating and preventing vasospasm” (The United States of America as represented by the …, priority 1996, dated 2000).

Data set [1] has as its system right middle cerebral artery (R MCA). Description: Arteriographic vasospasm of the R MCA in primate model of SAH (autologous clot placement). It is filed as in vivo, cynomologous macaques. As to conditions: for arteriographic vasospasm: 70 mg/kg/day. The procedure: (§1) Eleven (11) cynomologous macaques (8 male and 3 female, weight 3.0-5.9 kg.) were randomly divided into 2 groups. Craniotomy was performed in all animals and autologous clot was placed around the right middle cerebral artery (R MCA) after the arachnoid membrane was removed, as described elsewhere [Pluta et al., J. Neurosurg. 77:740-748 (1992)]. Six animals (3 male and 3 female) received IV infusion of 2,2'-dipyridyl (70 mg/kg/day) continuously for 14 days. Between postoperative days 7 and 10, cerebral arteriography was used to assess the presence and degree of vasospasm using methods previously described [Pluta et al., J. Neurosurg. 77:740-748 (1992)]. The five control animals (all male) received IV infusion of saline in a volume equal to that delivered in the experimental group (10-15 cc/kg/day). Two pilot animals were also used in an initial phase in order to establish an effective experimental dose. One received 44 mg/kg/day of IV 2,2'-dipyridyl, and the other received up to 100 mg/kg/8 hrs of IV 2,2'-dipyridyl.
Each monkey underwent arteriographic study of the R MCA 3 to 21 days before surgery and 7 to 10 days after clot placement [Pluta et al., J. Neurosurg. 77:740-748 (1992)]. Under general anesthesia (ketamine 10 mg/kg and isoflurane) and sterile conditions, a cutdown of the right femoral artery was performed and a No. 3 French catheter was advanced to the right ICA. Fluoroscopy (C-arm; OEC) and intravenous contrast (2 cc Conray, 60%; Malinkrodt Medical, St. Louis, Mo.), were used to acquire subtraction images of the vessel. A radiopaque ruler was placed in the field to allow standardized measurements.
(§2) All studies were performed in the standard anteroposterior projection (AP). During the arteriography, the end-tidal CO2 was maintained at 40 mm Hg and core body temperature was maintained at 37 degrees Celsius using a heating pad. Blood pressures were monitored during all procedures.
Placement of Subarachnoid Clot and Indwelling Intravenous Catheter
As in previous studies [Pluta et al., J. Neurosurg. 77:740-748 (1992)], each animal was anesthetized as follows. Each monkey was given an injection of ketamine (10 mg/kg IM), atropine sulfate (0.05 mg/kg IM), and sodium thiopental (25 mg/kg IV). The animals were intubated and ventilated with isoflurane (0.5%-1.0%) and 100% O2 and paralyzed with pancuronium (0.1 mg/kg). Each animal was hyperventilated to an end-tidal CO2 of 30 to 40 mm Hg.
Each animal was placed in the supine position for a right frontotemporal craniotomy. Under sterile conditions, the dura was opened and the R MCA was identified in the sylvian fissure. Using the operating microscope, the arachnoid membrane over the R MCA was dissected from the trifurcation to the origin of the vessel at the ICA bifurcation. 8-10 cc of autologous clotted arterial blood obtained by an assistant via a left femoral cutdown was then placed along the length of the exposed vessel. The dura was then closed in a watertight fashion, followed by the muscle and skin layers.
Each animal was then repositioned for placement of a 6.6 French Broviac catheter in the left femoral vein. […] The distal end of the catheter was passed subcutaneously to the midscapular region and secured. Each monkey was fitted in a jacket containing an infusion pump (Disetronic Medical Systems, Plymouth, Minn.) which delivered 70 mg/kg (60 cc/24 hours) of the 2,2'-dipyridyl solution. Each monkey was sedated daily with ketamine (10 mg/kg IM) to change the delivery pump. […]

Data set [2] in a line: Serum iron concentration in treated animals. It is filed as in vivo, cynomologous macaques. The following applies: drug-treated animals, 70 mg/kg/day. The procedure:
as §1
Plasma samples were collected on days 0 and 7 of each experiment and were analyzed by Maryland Medical Pathology (Rockville, Md.) for serum iron and percent transferrin saturation. Due to the molecular complexity of iron chelators, direct assays for these drugs are not available. […]

In another data set the test system is transferrin. Description: Percent transferrin saturation in treated animals. The format is in vivo, cynomologous macaques. The procedure: as §1
Plasma samples were collected on days 0 and 7 of each experiment and were analyzed by Maryland Medical Pathology (Rockville, Md.) for serum iron and percent transferrin saturation. Due to the molecular complexity of iron chelators, direct assays for these drugs are not available.
Data are reported as means of measurements by three individuals ±SEM and compared using an unpaired […] test. Significance was accepted at p<0.05.

The nature of data set [3]: Blood pressure monitoring. It is filed as in vivo, cynomologous macaques. As to conditions: all animals except pilot animal receiving 100 mg/kg/8 hours; 14-day treatment. The procedure:
as §1, §2

The subject of data set [4] is liver, kidney, brain and other tissues. Description: Gross and microscopic anatomic pathology. It is filed as in vivo, cynomologous macaques. Also noted: key to Toxicity Liver: L+: swelling of hepatocytes; L++: degeneration; L+++: lipidosis (#73, #105), regeneration (885N). As to conditions: IV 70 mg/kg/day for 14 days. The procedure: as §1
Tissues were studied for gross and microscopic anatomic pathology by Dr. Michael Eckhaus and staff (Veterinary Resources Program, National Center for Research Resources, NIH, Bethesda, Md.).

The nature of data set [5]: Clinical observations for signs of drug toxicity. The format is in vivo, cynomologous macaques. The procedure:
as §1
The monkeys were observed daily for changes in weight, feeding, behavior, alertness, and neurologic function. The monkeys also were observed closely for signs of drug toxicity, including tremors, emesis, vomiting, diarrhea, seizures, and CNS depression [Sigma MSDS, CAS #366-18-7, 1994].
Pilot studies were done to determine the experimental dosage. […] The second pilot animal received up to 100 mg/kg/8 hours. […] These two pilot animals were then excluded from further data analysis.

For data set [6] the following is noted: ferrous iron; cited from earlier work.
For data set [7] the following is noted: Peters et al. 1966; Oubidar et al. 1994; cited from earlier work.
The conditions of data set [8]: ferric iron; cited from earlier work.
The conditions of data set [9]: Harada et al. 1992; Vollmer et al. 1991; cited from earlier work.
The conditions of data set [10]: NO versus oxygen; cited from earlier work.
For data set [11] the following is noted: Afshar et al. 1995; cited from earlier work.
For data set [12] the following is noted: background statement; cited from earlier work.
Setting [13] is: pilot animal, IV 44 mg/kg/24 hours for 14 days.

Values joined by “and” are separate entries in the source; they are usually repeats but may differ in a detail not shown here. Equal entries are not always repeated.

As to `c1ccc(-c2ccccn2)nc1` [2,2'-dipyridyl], the arteriographic vasospasm entry in data set [1] (IV 70 mg/kg/day for 14 days, n=6, postoperative day 7-10) is recorded as “no arteriographic vasospasm”. Besides, the arteriographic vasospasm entry in data set [1] (IV 70 mg/kg/day for 14 days, n=6, postoperative day 7-10, listed as DP) was “no spasm”. For the same compound, the “mean AP area of the proximal portion of the MCA, of the baseline area” value in data set [1] (IV 70 mg/kg/day for 14 days, n=6, postoperative day 7-10, mean ± SEM, p<0.0001, control 44.8%±4.6%) is listed as 3.9%±4.3. Further, in data set [1] (setting [13]), the “vasospasm (reduction of AP area of R MCA)” value is listed as 20% and the vasospasm grade entry is reported as “mild (reduction in the AP area of the defined segment of the MCA of 12-25%)”. For the same compound, the “serum iron, day 7 as compared to day 0” value in data set [2] was “markedly reduced”. In the data set on transferrin (70 mg/kg/day), the “percent saturation of transferrin, change in treated animals” value was “decreased”. Further, in the data set with transferrin (individual monkey, day 0, IV 70 mg/kg/day, 70 mg/kg/day), the “TransFe sat % Day 0” value is 40% and 32% and 31% and 33%. For the same compound, in the data set on transferrin (individual monkey, day 7, IV 70 mg/kg/day, 70 mg/kg/day), the “TransFe sat % Day 7” value is 2% and 0% and -1% and -2% and -4%. Besides, in the data set with transferrin (mean of table, day 0, IV 70 mg/kg/day), the “TransFe sat % Day 0, Mean” value is 34 ± 4%. Also, the “TransFe sat % Day 7, Mean” value in the data set with transferrin (mean of table, day 7, p < 0.0001, IV 70 mg/kg/day) is recorded as -1.2 ± 2%. The “blood pressures during preoperative and postoperative arteriography” value in data set [3] is “stable and equivalent blood pressures”. For the same compound, in [4], the “brain changes (substantia nigra, cerebellum Purkinje cells)” value is “No brain changes”; the “gross pathology: brain, liver, kidney, lymph nodes, spleen, intestine, gonads, or skeletal or cardiac muscle” value is recorded as “no toxicity”; the “kidney pathology (collecting tubules), animals #2 and #5” value is reported as “Multifocal casts”; the “kidney pathology, animals #1, #3, #4, or #6” value is given as “No sign of nephrotoxicity”. For the same compound, in [4], the “liver pathology, animals #1, #3, #4, and #5” value is listed as “Hepato-cellular swelling”; the “liver pathology, animals #2 and #6” value is listed as “Hepatocellular degeneration”; the “liver pathology, overall” value is listed as “Mild changes”; the “microscopic pathology: brain (substantia nigra and cerebellar Purkinje cells), lymph nodes, spleen, intestine, gonads, or skeletal or cardiac muscle” value is on record as “no toxicity”. Moreover, in [4] (individual monkey, 70 mg/kg/day), the “Toxicity Liver” value is “L+ and L++”. In addition, the “toxicity at the effective dose” value in data set [5] (70 mg/kg/day) was “mild”. Also, in data set [5] (IV 70 mg/kg/day), the “resolution of tremors and leg weakness, animal #1” value is at most 4 days; the “resolution of tremors and leg weakness, animal #2” value is on record as “did not resolve in animal #2 by day 14”; the “resolution of tremors and leg weakness, animal #4” value was at most 6 days. Also, the toxic symptoms entry in [5] (animals #1, #2, and #4, IV 70 mg/kg/day for 14 days) is “mild tremors of the upper and lower extremities, and leg weakness”. For the same compound, the toxic symptoms result in data set [5] (animals #3, #5, and #6, IV 70 mg/kg/day for 14 days) is given as “no toxic symptoms”. In addition, the “weight loss, changes in feeding habits, or alertness” value in [5] (control or treated animals, IV 70 mg/kg/day for 14 days) is “None”. The signs of toxicity entry in [5] (setting [13]) is listed as “no sign of toxicity”. For the same compound, the symptoms of toxicity result in data set [5] (pilot animal, IV up to 100 mg/kg/8 hours, sacrificed on fourth day of drug delivery) is “symptoms of toxicity (tremors, emesis, and diarrhea)”.
Consider `CC(=O)N(O)CCCCCNC(=O)CCC(=O)N(O)CCCCCNC(=O)CCC(=O)N(O)CCCCCN` [deferoxamine], for which the “deferoxamine-iron stability constant for Fe^+2” value in data set [6] is on record as 10^2 to 10^14. Also, in data set [7], the “CSF levels before toxic systemic effects appear” value is “adequate CSF levels cannot be achieved before toxic systemic effects appear” and the “penetrability of the blood-brain barrier” value was “limited penetrability”. For the same compound, the “deferoxamine-iron stability constant for Fe^+3” value in data set [8] is 10^31. The “success in potential therapies for vasospasm” value in data set [9] was “limited success”.
As for “Hemoglobin: Hemoglobin has a strong affinity for NO”, the “binding to NO more readily than to oxygen” value in [10] was 1,500 fold.
Regarding nitric oxide [NO], in data set [11], the “effect of intracarotid infusion on vasospasm” value is “reversal of vasospasm”.
Take “oxyhemoglobin: the clinically-relevant vasospastic agent”: the vasospastic activity result in data set [12] is “vasospastic”.
